Assay results from ChEMBL document CHEMBL1250527, “Chalcone glycosides isolated from aerial parts of Brassica rapa L. 'hidabeni' suppress antigen-stimulated degranulation in rat basophilic leukemia RBL-2H3 cells” (Bioorg Med Chem, 2010).
Calls of active or inactive are those of the source. The rule behind the calls is not given here.

Experiments:
RBL-2H3 [1] = assay: Antiallergic activity against antigen-IgE-mediated degranulation in rat RBL2H3 cells assessed as inhibition of DNP-BSA-induced intracellular pathway at 50 uM after 30 mins; type: functional, cell-based
RBL-2H3 [2] = assay: Antiallergic activity against antigen-IgE-mediated degranulation in rat RBL2H3 cells assessed as inhibition of DNP-BSA-induced beta-hexosaminidase release at 10 to 100 uM; type: functional, cell-based
RBL-2H3 [3] = assay: Antiallergic activity against antigen-IgE-mediated degranulation in rat RBL2H3 cells assessed as reduction in DNP-BSA-induced intracellular calcium level at 50 uM after 30 mins; type: functional, cell-based
RBL-2H3 [4] = assay: Antiallergic activity against antigen-IgE-mediated degranulation in rat RBL2H3 cells assessed as reduction in DNP-BSA-induced ROS production at 50 uM after 30 mins; type: functional, cell-based
RBL-2H3 [5] = assay: Antioxidant activity […] assessed as DPPH radical scavenging activity; type: functional
RBL-2H3 [6] = assay: Antiallergic activity against antigen-IgE-mediated degranulation in rat RBL2H3 cells assessed as inhibition of translocation of cytosolic subunit of NADPH oxidase by immunofluorescence technique; type: functional, cell-based
RBL-2H3 [7] = assay: Antiallergic activity against antigen-IgE-mediated degranulation in rat RBL2H3 cells assessed as inhibition of translocation of p47phox cytosolic subunit of NADPH oxidase by immunofluorescence technique; type: functional, cell-based
RBL-2H3 [8] = assay: Inhibition of NOX-mediated calcium in rat RBL2H3 cells mobilization assessed as antigen-IgE-mediated degranulation; type: cell-based

With `COc1cc(C(=O)/C=C/c2ccc(O)cc2)ccc1O[C@@H]1O[C@H](CO)[C@@H](O)[C@H](O)[C@H]1O` the Activity (RBL-2H3 [1]) was “Active”, the Activity (RBL-2H3 [2]) was “Active” and the Activity (RBL-2H3 [3]) was “Active”. For the same compound, the Activity (RBL-2H3 [4]) was “Active”, the Activity (RBL-2H3 [5]) was “inactive” and the Activity (RBL-2H3 [6]) was “Active”. For the same compound, the Activity (RBL-2H3 [7]) was “Active” and the inhibition (RBL-2H3 [8]) was “Active”.
In the case of `COc1ccc(/C=C/C(=O)c2ccc(O[C@@H]3O[C@H](CO)[C@@H](O)[C@H](O)[C@H]3O)c(OC)c2)cc1`, the Activity (RBL-2H3 [1]) is reported as “Active”, the Activity (RBL-2H3 [2]) is reported as “Active” and the Activity (RBL-2H3 [3]) is reported as “Active”. The Activity (RBL-2H3 [4]) was “Active”, the Activity (RBL-2H3 [5]) was “inactive” and the Activity (RBL-2H3 [6]) was “Active”. For the same compound, the Activity (RBL-2H3 [7]) was “Active” and the inhibition (RBL-2H3 [8]) was “Active”.
